Positions of bridges follow the written chain, without caps; N, C: chain ends. Non-standard residues stand in square brackets, D forms with d. Residues, ends and D or L forms follow the SMILES beside them. Phe(4-Cl) = N[C@@H](Cc1ccc(Cl)cc1)C(=O)O; dPhe(4-Cl) = N[C@H](Cc1ccc(Cl)cc1)C(=O)O; 2Nal = N[C@@H](Cc1ccc2ccccc2c1)C(=O)O; d2Nal = N[C@H](Cc1ccc2ccccc2c1)C(=O)O; d3Pal = N[C@H](Cc1cccnc1)C(=O)O; Orn = NCCC[C@H](N)C(=O)O; Dab = NCC[C@H](N)C(=O)O; Dap = NC[C@H](N)C(=O)O; βAla = NCCC(=O)O; Sar = CNCC(=O)O

The results in this text go back to patent US5371070A, “Bicyclic GnRH antagonists and a method for regulating the secretion of gonadotropins” (The Salk Institute for Biological Studies, priority 1992, dated 1994).

This experiment has as its system ovulation in mature female Sprague-Dawley rats. The experiment is described as follows: rat anti-ovulation assay (in vivo). The settings on record: for Rats Ovulating: injected about noon on day of proestrus, rats ovulating/rats treated. An excerpt: These improved bicyclic GnRH antagonists are generally characterized by a substantial ability to suppress the secretion of LH in a standard rat pituitary cell assay when administered together with a concentration of 3 nanomolar GnRH, the details of which assay are set forth in Rivier and Vale, Life Sciences, 23, 869-876 (1978). By substantial ability is meant that, at a concentration of GnRH antagonist to GnRH of about 2/1 or less, the amount of LH secreted is reduced by 50% (IDR50). Moreover, when tested in vivo in the standard rat anti-ovulation assay (Corbin et al. Endocrine Res. Commun., 2, 1 (1975)), these GnRH antagonists show complete blockage of ovulation when administered at about 200 μg or less per kilogram of body weight.
In vivo testing determines effectiveness to prevent ovulation in female rats. In this test, a specified number of mature female Sprague-Dawley rats, e.g. usually five to ten, each having a body weight from about 225 to 250 grams, is injected with a specified microgram dosage of peptide in either saline or bacteriostatic water at about noon on the day of proestrus. Proestrus is the afternoon […]. A separate female rat group is used as a control to which the peptide is not administered. Each of the control female rats ovulates on the evening of proestrus, and the number of the treated rats which ovulate is recorded. The results are set forth in the following Table A, wherein the dosages stated are in micrograms per rat.

Consider `CC(=O)N[C@H](Cc1ccc2ccccc2c1)C(=O)N[C@H](Cc1ccc(Cl)cc1)C(=O)N[C@H](Cc1cccnc1)C(=O)N[C@H]1CC(=O)NC[C@@H](C(N)=O)NC(=O)[C@@H]2CCCN2C(=O)[C@@H]2CCNC(=O)CN(C)C(=O)CC[C@H](NC1=O)C(=O)N[C@H](CCCNC(=N)N)C(=O)N[C@@H](CC(C)C)C(=O)N2` [Peptide 5] (Ac-[d2Nal][dPhe(4-Cl)][d3Pal]DE[dR]L[Dab]P[Dap]-NH2; lactam 4-10; linker 5-8 via Sar), for which the “Rats Ovulating” value (dosage 10 micrograms per rat) is 4/9.

In the case of `CC(=O)N[C@H](Cc1ccc2ccccc2c1)C(=O)N[C@H](Cc1ccc(Cl)cc1)C(=O)N[C@H](Cc1cccnc1)C(=O)N[C@H]1CC(=O)NC[C@@H](C(N)=O)NC(=O)[C@@H]2CCCN2C(=O)[C@@H]2CCNC(=O)[C@H](CCCNC(=N)N)NC(=O)CC[C@H](NC1=O)C(=O)N[C@H](CCCNC(=N)N)C(=O)N[C@@H](CC(C)C)C(=O)N2` [Peptide 1, (Cyclo 4-10,5,5'-8)[Ac-β-D-2NAL^1, (4Cl)D--Phe^2, D-3PAL^3, Asp^4, Glu^5 (Arg), D--Arg^6, Dbu^8, Dpr^10]-GnRH] (Ac-[d2Nal][dPhe(4-Cl)][d3Pal]DE[dR]L[Dab]P[Dap]-NH2; lactam 4-10; linker 5-8 via R), the “effectiveness to prevent ovulation of female rats” value (at a very low dosage) is reported as “significantly effective”. Moreover, the “Rats Ovulating” value is, setting by setting: (dosage 1.0 micrograms per rat) 2/11; (dosage 2.5 micrograms per rat) 0/4. For the same compound, the “dose considered totally effective to prevent ovulation” value (female rats) is “about 50 micrograms per Kg of body weight”. Moreover, the “dose at which it should likely be effective to prevent ovulation” value (female rats, stated as likely) is reported as “about 5 μg/Kg”.

`CC(=O)N[C@H](Cc1ccc2ccccc2c1)C(=O)N[C@H](Cc1ccc(Cl)cc1)C(=O)N[C@H](Cc1cccnc1)C(=O)N[C@H]1CC(=O)NC[C@@H](C(N)=O)NC(=O)[C@@H]2CCCN2C(=O)[C@@H]2CCNC(=O)CNC(=O)CC[C@H](NC1=O)C(=O)N[C@H](CCCNC(=N)N)C(=O)N[C@@H](CC(C)C)C(=O)N2` [Peptide 2] (Ac-[d2Nal][dPhe(4-Cl)][d3Pal]DE[dR]L[Dab]P[Dap]-NH2; lactam 4-10; linker 5-8 via G): the “Rats Ovulating” value was 6/8 (dosage 2.5 micrograms per rat), 2/8 (dosage 5 micrograms per rat), 1/6 (dosage 10 micrograms per rat) and 0/3 (dosage 25 micrograms per rat).

With `CC(=O)N[C@H](Cc1ccc2ccccc2c1)C(=O)N[C@H](Cc1ccc(Cl)cc1)C(=O)N[C@H](Cc1cccnc1)C(=O)N[C@H]1CC(=O)NC[C@@H](C(N)=O)NC(=O)[C@@H]2CCCN2C(=O)[C@@H]2CCCNC(=O)[C@H](Cc3ccccc3)NC(=O)C[C@H](NC1=O)C(=O)N[C@H](CCCNC(=N)N)C(=O)N[C@@H](CC(C)C)C(=O)N2` [Peptide 10] (Ac-[d2Nal][dPhe(4-Cl)][d3Pal]DD[dR]L[Orn]P[Dap]-NH2; lactam 4-10; linker 5-8 via F), the “Rats Ovulating” value runs as follows: (dosage 2.5 micrograms per rat) 6/6; (dosage 5 micrograms per rat) 0/4.

Consider `CC(=O)N[C@H](Cc1ccc2ccccc2c1)C(=O)N[C@H](Cc1ccc(Cl)cc1)C(=O)N[C@H](Cc1cccnc1)C(=O)N[C@H]1CC(=O)NC[C@@H](C(N)=O)NC(=O)[C@@H]2CCCN2C(=O)[C@@H]2CCNC(=O)[C@H](Cc3ccc(Cl)cc3)NC(=O)CC[C@H](NC1=O)C(=O)N[C@H](CCCNC(=N)N)C(=O)N[C@@H](CC(C)C)C(=O)N2` [Peptide 14] (Ac-[d2Nal][dPhe(4-Cl)][d3Pal]DE[dR]L[Dab]P[Dap]-NH2; lactam 4-10; linker 5-8 via Phe(4-Cl)), for which the “Rats Ovulating” value runs as follows: (dosage 2.5 micrograms per rat) 3/4; (dosage 5 micrograms per rat) 0/6.

Take `CC(=O)N[C@H](Cc1ccc2ccccc2c1)C(=O)N[C@H](Cc1ccc(Cl)cc1)C(=O)N[C@H](Cc1cccnc1)C(=O)N[C@H]1CC(=O)NC[C@@H](C(N)=O)NC(=O)[C@@H]2CCCN2C(=O)[C@@H]2CCCNC(=O)[C@H](Cc3ccccc3)NC(=O)CC[C@H](NC1=O)C(=O)N[C@H](CCCNC(=N)N)C(=O)N[C@@H](CC(C)C)C(=O)N2` [Peptide 8] (Ac-[d2Nal][dPhe(4-Cl)][d3Pal]DE[dR]L[Orn]P[Dap]-NH2; lactam 4-10; linker 5-8 via F): the “Rats Ovulating” value (dosage 10 micrograms per rat) is 5/5 and the “Rats Ovulating” value (dosage 25 micrograms per rat) was 0/8.

For `CC(=O)N[C@H](Cc1ccc2ccccc2c1)C(=O)N[C@H](Cc1ccc(Cl)cc1)C(=O)N[C@H](Cc1cccnc1)C(=O)N[C@H]1CC(=O)NC[C@@H](C(N)=O)NC(=O)[C@@H]2CCCN2C(=O)[C@@H]2CNC(=O)[C@H](Cc3ccccc3)NC(=O)CC[C@H](NC1=O)C(=O)N[C@H](CCCNC(=N)N)C(=O)N[C@@H](CC(C)C)C(=O)N2` [Peptide 6] (Ac-[d2Nal][dPhe(4-Cl)][d3Pal]DE[dR]L[Dap]P[Dap]-NH2; lactam 4-10; linker 5-8 via F), where the note is “dosage 10 micrograms per rat”, the “Rats Ovulating” value is given as 6/8.

Consider `CC(=O)N[C@H](Cc1ccc2ccccc2c1)C(=O)N[C@H](Cc1ccc(Cl)cc1)C(=O)N[C@H](Cc1cccnc1)C(=O)N[C@H]1CC(=O)NC[C@@H](C(N)=O)NC(=O)[C@@H]2CCCN2C(=O)[C@@H]2CCNC(=O)CCNC(=O)C[C@H](NC1=O)C(=O)N[C@H](CCCNC(=N)N)C(=O)N[C@@H](CC(C)C)C(=O)N2` [Peptide 4] (Ac-[d2Nal][dPhe(4-Cl)][d3Pal]DD[dR]L[Dab]P[Dap]-NH2; lactam 4-10; linker 5-8 via βAla), for which the “Rats Ovulating” value is 9/14 (dosage 2.5 micrograms per rat), 7/10 (dosage 5 micrograms per rat) and 4/5 (dosage 10 micrograms per rat).

As to `CC(=O)N[C@H](Cc1ccc2ccccc2c1)C(=O)N[C@H](Cc1ccc(Cl)cc1)C(=O)N[C@H](Cc1cccnc1)C(=O)N[C@H]1CC(=O)NC[C@@H](C(N)=O)NC(=O)[C@@H]2CCCN2C(=O)[C@@H]2CCNC(=O)[C@H](Cc3c[nH]cn3)NC(=O)CC[C@H](NC1=O)C(=O)N[C@H](CCCNC(=N)N)C(=O)N[C@@H](CC(C)C)C(=O)N2` [Peptide 12] (Ac-[d2Nal][dPhe(4-Cl)][d3Pal]DE[dR]L[Dab]P[Dap]-NH2; lactam 4-10; linker 5-8 via H), the “Rats Ovulating” value is, setting by setting: (dosage 1.0 micrograms per rat) 4/4; (dosage 2.5 micrograms per rat) 3/8.

With `CC(=O)N[C@H](Cc1ccc2ccccc2c1)C(=O)N[C@H](Cc1ccc(Cl)cc1)C(=O)N[C@H](Cc1cccnc1)C(=O)N[C@H]1CC(=O)NC[C@@H](C(N)=O)NC(=O)[C@@H]2CCCN2C(=O)[C@@H]2CCNC(=O)[C@H](Cc3ccccc3)NC(=O)CC[C@H](NC1=O)C(=O)N[C@H](CCCNC(=N)N)C(=O)N[C@@H](CC(C)C)C(=O)N2` [Peptide 7] (Ac-[d2Nal][dPhe(4-Cl)][d3Pal]DE[dR]L[Dab]P[Dap]-NH2; lactam 4-10; linker 5-8 via F), the “Rats Ovulating” value by setting is: (dosage 1.0 micrograms per rat) 4/7; (dosage 2.5 micrograms per rat) 3/10; (dosage 5 micrograms per rat) 1/8; (dosage 10 micrograms per rat) 0/9.

For the compound `CC(=O)N[C@H](Cc1ccc2ccccc2c1)C(=O)N[C@H](Cc1ccc(Cl)cc1)C(=O)N[C@H](Cc1cccnc1)C(=O)N[C@H]1CC(=O)NC[C@@H](C(N)=O)NC(=O)[C@@H]2CCCN2C(=O)[C@@H]2CCNC(=O)[C@H](Cc3ccccc3)NC(=O)C[C@H](NC1=O)C(=O)N[C@H](CCCNC(=N)N)C(=O)N[C@@H](CC(C)C)C(=O)N2` [Peptide 9] (Ac-[d2Nal][dPhe(4-Cl)][d3Pal]DD[dR]L[Dab]P[Dap]-NH2; lactam 4-10; linker 5-8 via F), the “Rats Ovulating” value (dosage 10 micrograms per rat) is reported as 0/4.

Take `CC(=O)N[C@H](Cc1ccc2ccccc2c1)C(=O)N[C@H](Cc1ccc(Cl)cc1)C(=O)N[C@H](Cc1cccnc1)C(=O)N[C@H]1CC(=O)NC[C@@H](C(N)=O)NC(=O)[C@@H]2CCCN2C(=O)[C@@H]2CCNC(=O)[C@H](Cc3ccc4ccccc4c3)NC(=O)CC[C@H](NC1=O)C(=O)N[C@H](CCCNC(=N)N)C(=O)N[C@@H](CC(C)C)C(=O)N2` [Peptide 11] (Ac-[d2Nal][dPhe(4-Cl)][d3Pal]DE[dR]L[Dab]P[Dap]-NH2; lactam 4-10; linker 5-8 via 2Nal): the “Rats Ovulating” value by setting is: (dosage 5 micrograms per rat) 1/7; (dosage 10 micrograms per rat) 0/4.

For the compound `CC(=O)N[C@H](Cc1ccc2ccccc2c1)C(=O)N[C@H](Cc1ccc(Cl)cc1)C(=O)N[C@H](Cc1cccnc1)C(=O)N[C@H]1CC(=O)NC[C@@H](C(N)=O)NC(=O)[C@@H]2CCCN2C(=O)[C@@H]2CCNC(=O)CNC(=O)C[C@H](NC1=O)C(=O)N[C@H](CCCNC(=N)N)C(=O)N[C@@H](CC(C)C)C(=O)N2` [Peptide 3] (Ac-[d2Nal][dPhe(4-Cl)][d3Pal]DD[dR]L[Dab]P[Dap]-NH2; lactam 4-10; linker 5-8 via G), the “Rats Ovulating” value (dosage 10 micrograms per rat) is listed as 4/6 and the “Rats Ovulating” value (dosage 25 micrograms per rat) is listed as 0/5.
